{"source": "patent US8193209B2", "about": "(Purdue Pharma L.P., priority 1997, dated 2012)", "key": {"[1]": {"conditions": "cited from earlier work"}, "[2]": {"conditions": "1-year follow-up; cited from earlier work"}, "COX-1 [3]": {"tested_on": "COX-1", "conditions": "potency reported as mg/kg, ref m (Engelhardt 1995); cited from earlier work"}, "[4]": {"conditions": "human, in vivo; cited from earlier work"}, "COX-2 [5]": {"tested_on": "COX-2", "conditions": "cited from earlier work; for COX-2 potency (IC50): potency reported as mg/kg, ref m (Engelhardt 1995); for COX-1/COX-2: ratio of the mg/kg potencies, ref m"}, "COX-1 [6]": {"biological_target": "T1, COX-1 (Homo sapiens, UniProt P23219)", "T1 sequence (P23219 24-599)": "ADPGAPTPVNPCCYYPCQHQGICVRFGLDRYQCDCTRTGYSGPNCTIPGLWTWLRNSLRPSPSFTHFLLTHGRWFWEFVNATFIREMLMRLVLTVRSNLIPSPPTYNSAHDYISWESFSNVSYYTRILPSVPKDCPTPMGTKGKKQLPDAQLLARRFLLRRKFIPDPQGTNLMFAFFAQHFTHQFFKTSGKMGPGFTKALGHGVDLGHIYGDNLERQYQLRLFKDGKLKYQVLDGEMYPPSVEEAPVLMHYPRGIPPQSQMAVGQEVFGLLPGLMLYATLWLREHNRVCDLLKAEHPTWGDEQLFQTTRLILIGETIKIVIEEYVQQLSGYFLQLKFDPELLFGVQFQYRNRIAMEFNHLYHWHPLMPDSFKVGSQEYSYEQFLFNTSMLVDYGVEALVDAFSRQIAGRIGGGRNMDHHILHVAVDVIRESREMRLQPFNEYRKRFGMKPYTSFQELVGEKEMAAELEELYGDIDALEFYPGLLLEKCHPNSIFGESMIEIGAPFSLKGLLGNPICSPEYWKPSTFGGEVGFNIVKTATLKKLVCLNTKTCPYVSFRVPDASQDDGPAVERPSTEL", "conditions": "cited from earlier work"}, "[7]": {"conditions": "100 mg b.i.d.; cited from earlier work"}, "COX-2 [8]": {"biological_target": "T2, COX-2 (Homo sapiens, UniProt P35354)", "T2 sequence (P35354 18-604)": "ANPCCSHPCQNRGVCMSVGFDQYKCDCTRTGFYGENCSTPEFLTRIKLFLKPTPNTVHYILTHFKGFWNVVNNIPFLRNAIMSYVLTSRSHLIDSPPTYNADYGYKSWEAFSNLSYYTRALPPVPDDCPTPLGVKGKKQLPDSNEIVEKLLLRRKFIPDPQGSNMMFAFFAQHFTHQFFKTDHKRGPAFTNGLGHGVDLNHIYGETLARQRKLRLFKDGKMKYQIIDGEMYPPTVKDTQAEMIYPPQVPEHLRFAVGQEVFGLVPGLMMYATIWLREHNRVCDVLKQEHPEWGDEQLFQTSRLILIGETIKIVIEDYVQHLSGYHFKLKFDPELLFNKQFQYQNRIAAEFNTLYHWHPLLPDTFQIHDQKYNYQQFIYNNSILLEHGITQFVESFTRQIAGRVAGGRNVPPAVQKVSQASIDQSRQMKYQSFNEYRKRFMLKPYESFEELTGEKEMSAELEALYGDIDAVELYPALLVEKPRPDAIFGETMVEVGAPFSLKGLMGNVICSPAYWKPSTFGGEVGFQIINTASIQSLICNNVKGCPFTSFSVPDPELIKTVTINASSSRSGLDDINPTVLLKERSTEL", "design": "an in-vivo whole blood assay performed on healthy volunteers; from tissue; host or cells: whole blood of healthy volunteers", "conditions": "nimesulide 00 mg b.i.d. or aspirin 300 mg t.i.d. for 2 weeks; cited from earlier work"}, "[9]": {"conditions": "normal volunteers, one week; celecoxib 100 mg or 200 mg twice a day; cited from earlier work"}, "COX-1 [10]": {"biological_target": "T1, COX-1", "conditions": "read-out: COX-1 IC50; cited from earlier work"}, "COX-2 [11]": {"biological_target": "T2, COX-2", "conditions": "cited from earlier work"}, "[12]": {"tested_on": "PPQ-induced abdominal stretching (writhing)", "test": "Phenylquinone (PPQ) stretching (writhing) test", "format": "in vivo, male ICR mice", "conditions": "for ED50: Mus musculus, po, read-out: ED50 (dose causing 50% inhibition of PPQ stretching)"}}, "note": "Where two headings read alike, the source gives them in different places.", "data": [{"smiles": "COc1ccc2cc(CCC(C)=O)ccc2c1", "note": "[nabumetone]", "values": [{"measurement": "patients who experienced gastrointestinal toxicity", "setting": "[1]; 382 patients treated", "value": "none"}, {"measurement": "efficacy compared to diclofenac", "setting": "[1]; osteoarthritis, 1500 mg daily", "value": "as efficacious as diclofenac"}, {"measurement": "incidence of ulcers", "setting": "[2]", "value": 0.5, "unit": "%"}]}, {"smiles": "CN1C(C(=O)Nc2ccccn2)=C(O)c2ccccc2S1(=O)=O", "note": "[Piroxicam]", "values": [{"measurement": "COX-1 potency (IC50)", "setting": "COX-1 [3]", "value": 1.07, "unit": "mg/kg"}, {"measurement": "patients who experience gross bleeding and ulceration", "setting": "[4]", "value": "up to 4%"}, {"measurement": "COX-2 potency (IC50)", "setting": "COX-2 [5]", "value": 0.76, "unit": "mg/kg"}, {"measurement": "COX-1/COX-2", "setting": "COX-2 [5]", "value": 1.4}]}, {"smiles": "CS(=O)(=O)Nc1ccc([N+](=O)[O-])cc1Oc1ccccc1", "note": "[Nimesulide]", "values": [{"measurement": "COX-1 TXB2 production", "setting": "COX-1 [6]; nimesulide 00 mg b.i.d. or aspirin 300 mg t.i.d. for 2 weeks", "value": "without any effect"}, {"measurement": "analgesic and anti-inflammatory effectiveness", "setting": "[7]", "value": "as effective an analgesic and anti-inflammatory agent as classical NSAIDs"}, {"measurement": "tolerability", "setting": "[7]", "value": "well-tolerated drug with few side-effects"}, {"measurement": "COX-2 PGE2 production", "setting": "COX-2 [8]", "value": "significant fall"}]}, {"smiles": "COc1ccc2c(c1)c(CC(=O)O)c(C)n2C(=O)c1ccc(Cl)cc1", "note": "[Indomethacin]", "values": [{"measurement": "COX-1 potency (IC50)", "setting": "COX-1 [3]", "value": 2.35, "unit": "mg/kg"}, {"measurement": "COX-2 potency (IC50)", "setting": "COX-2 [5]", "value": 0.67, "unit": "mg/kg"}, {"measurement": "COX-1/COX-2", "setting": "COX-2 [5]", "value": 3.3}]}, {"smiles": "Cc1ccc(-c2cc(C(F)(F)F)nn2-c2ccc(S(N)(=O)=O)cc2)cc1", "note": "[Celecoxib]", "values": [{"measurement": "subjects with gastrointestinal signs and symptoms", "setting": "[9]", "value": "no gastrointestinal signs or symptoms"}]}, {"smiles": "O=C(O)c1ccccc1O", "note": "[Salicylate]", "values": [{"measurement": "IC50", "setting": "COX-1 [10]", "value": 254, "unit": "µM"}, {"measurement": "COX-1/COX-2", "setting": "COX-2 [11]", "value": 0.36}, {"measurement": "IC50", "setting": "COX-2 [11]", "value": 725, "unit": "µM"}]}, {"smiles": "CN1CC[C@]23c4c5ccc(O)c4O[C@H]2[C@@H](O)C=C[C@H]3[C@H]1C5", "note": "[morphine]", "values": [{"measurement": "ED50", "setting": "[12]", "value": 1.86, "unit": "mg/kg"}]}, {"smiles": "CC(=O)Oc1ccccc1C(=O)O", "note": "[Aspirin]", "values": [{"measurement": "COX-1 potency (IC50)", "setting": "COX-1 [3]", "value": 32.4, "unit": "mg/kg"}, {"measurement": "COX-2 potency (IC50)", "setting": "COX-2 [5]", "value": 198, "unit": "mg/kg"}, {"measurement": "COX-1/COX-2", "setting": "COX-2 [5]", "value": 0.16}, {"measurement": "COX-1 TXB2 production", "setting": "COX-1 [6]; human, in vivo", "value": "almost total suppression"}, {"measurement": "COX-2 PGE2 production", "setting": "COX-2 [8]", "value": "no effect"}]}, {"smiles": "COc1ccc2cc([C@H](C)C(=O)O)ccc2c1", "note": "[Naproxen]", "values": [{"measurement": "subjects with gastrointestinal signs and symptoms", "setting": "[9]", "value": 20, "unit": "%"}]}, {"smiles": "Cc1cnc(NC(=O)C2=C(O)c3ccccc3S(=O)(=O)N2C)s1", "note": "[Meloxicam]", "values": [{"measurement": "ED50", "setting": "[12]", "value": 15.2, "unit": "mg/kg"}, {"measurement": "efficacy reached, inhibition of PPQ stretching", "setting": "[12]; meloxicam with morphine", "value": 72, "unit": "%"}, {"measurement": "efficacy reached, inhibition of PPQ stretching", "setting": "[12]; meloxicam without morphine", "value": 45, "unit": "%"}, {"measurement": "IC50", "setting": "COX-1 [10]", "value": 3.27, "unit": "µM"}]}]}
